Laboratory results published in US10287252B2, “Inhibitors of tryptophan-2,3-dioxygenase or indoleamine-2,3-dioxygenase” (IOmet Pharma Ltd., priority 2014, dated 2019).

Tests used:
IDO = IDO (Homo sapiens, UniProt P14902); test: SKOV3 Kynurenine cell based assay; set-up: IDO expression was induced in the SKOV3 cells by the addition of 500 ng/ml IFN-γ; endogenous in cells; host or cells: SKOV3 (human ovarian adenocarcinoma), induced with IFN-γ; settings: SKOV3 (human ovarian adenocarcinoma) cells, IDO induced by 500 ng/ml IFN-γ, 500 μM L-tryptophan, 48 hours; for IC50: read-out: SKOV3 Kynurenine cell based assay pIC50 (converted)
Sequence of IDO (P14902 whole entry): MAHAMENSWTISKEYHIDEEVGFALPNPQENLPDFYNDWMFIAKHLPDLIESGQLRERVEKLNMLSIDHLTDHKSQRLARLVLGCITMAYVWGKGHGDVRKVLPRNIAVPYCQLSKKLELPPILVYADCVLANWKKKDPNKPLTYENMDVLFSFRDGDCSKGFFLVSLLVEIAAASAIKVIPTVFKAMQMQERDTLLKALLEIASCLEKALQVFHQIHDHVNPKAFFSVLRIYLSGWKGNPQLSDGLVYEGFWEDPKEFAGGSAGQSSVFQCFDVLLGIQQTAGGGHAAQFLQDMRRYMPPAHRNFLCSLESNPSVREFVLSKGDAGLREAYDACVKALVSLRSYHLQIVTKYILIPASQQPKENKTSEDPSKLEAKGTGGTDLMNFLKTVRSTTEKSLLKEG
Description: (§1) Exemplary compounds of the invention were prepared, and tested to determine their effect as TDO and/or IDO inhibitors. Two different assays were employed: 1. a cell-based assay for detecting the effect of test compounds on kynurenine production in two different cancer cell types. This assay utilised cancer cells which expressed either TDO or IDO and as such was used as a means of testing compound activity at these two enzymes in a cell-based context. 2. a TDO and IDO biochemical coupled assay which utilised recombinantly produced and purified TDO and IDO enzymes in combination with the enzyme formamidase. This coupled enzyme system allowed conversion of N-formylkynurenine produced by TDO or IDO activity to kynurenine which was then quantified by fluorescence following addition of Erhlich's Reagent The protocols for these are set out below.
(§2) Cell Based Assay for Detection of Kynurenine Produced by TDO and/or IDO
(§3) A172 (human glioblastoma) and SKOV3 (human ovarian adenocarcinoma) cells were seeded in a 96 well plate at 30,000 or 40,000 cells per well respectively in phenol red-free RPMI supplemented with 10% FCS, 2 mM L-glutamine and 500 μM L-tryptophan. IDO expression was induced in the SKOV3 cells by the addition of 500 ng/ml IFN-γ. Cells were incubated at 37° C. with or without the addition of test compound. After 48 hours, the cells were removed by centrifugation and Erhlich's reagent was added to the supernatant. The Erhlich's reagent was incubated for 5 minutes before the absorbance was read at 490 nm.

TDO = TDO (Homo sapiens, UniProt P48775); test: A172 Kynurenine cell based assay; set-up: This assay utilised cancer cells which expressed either TDO or IDO; endogenous in cells; host or cells: A172 (human glioblastoma); settings: A172 (human glioblastoma) cells, 500 μM L-tryptophan, 48 hours, kynurenine by Erhlich's reagent; for IC50: read-out: A172 Kynurenine cell based assay pIC50 (converted)
Sequence of TDO (P48775 whole entry): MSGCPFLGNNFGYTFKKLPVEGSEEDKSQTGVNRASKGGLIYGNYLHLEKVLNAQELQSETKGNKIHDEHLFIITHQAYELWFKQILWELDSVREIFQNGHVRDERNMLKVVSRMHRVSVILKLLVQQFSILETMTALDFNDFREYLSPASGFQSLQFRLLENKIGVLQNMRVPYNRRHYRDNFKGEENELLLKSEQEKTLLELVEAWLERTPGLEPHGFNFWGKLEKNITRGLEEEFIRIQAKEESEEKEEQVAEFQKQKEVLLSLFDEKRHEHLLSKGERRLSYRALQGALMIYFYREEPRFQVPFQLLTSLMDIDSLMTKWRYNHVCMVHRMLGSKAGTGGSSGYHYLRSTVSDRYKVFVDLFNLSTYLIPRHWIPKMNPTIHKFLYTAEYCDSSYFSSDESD
Description: as §1, §2, §3

Structure (SMILES)	SKOV3 Kynurenine cell based assay pIC50 (IDO)	A172 Kynurenine cell based assay pIC50 (TDO)	IC50 (IDO) [µM]	IC50 (TDO) [µM]
CC(C)CS(=O)(=O)N(c1cccc2cnccc12)S(=O)(=O)CC(C)C [Compound 5]	+ (+ = pIC50 4.00-4.49)	+/− (+/− = pIC50 <4.00)	–	–
O=C(Nc1cccc2cnccc12)c1ccccc1 [Compound 7]	+ (+ = pIC50 4.00-4.49)	+/− (+/− = pIC50 <4.00)	–	–
CN1CCOC(C(=O)Nc2cccc3cnccc23)C1 (stereo not shown) [Compound 8]	++ (++ = pIC50 4.50-5.49)	++ (++ = pIC50 4.50-5.49)	–	–
Cc1ccc(S(=O)(=O)Nc2cccc3cnccc23)cc1 [Compound 10]	++ (++ = pIC50 4.50-5.49)	+/− (+/− = pIC50 <4.00)	–	–
O=S(=O)(Nc1cccc2cnccc12)c1ccccc1Cl [Compound 11]	++ (++ = pIC50 4.50-5.49)	++ (++ = pIC50 4.50-5.49)	–	–
O=S(=O)(Nc1cccc2cnccc12)c1ccc(Cl)cc1 [Compound 12]	++ (++ = pIC50 4.50-5.49)	++ (++ = pIC50 4.50-5.49)	–	–
O=S(=O)(Nc1cccc2cnccc12)c1cccc(Cl)c1 [Compound 13]	++ (++ = pIC50 4.50-5.49)	++ (++ = pIC50 4.50-5.49)	–	–
CCCS(=O)(=O)Nc1cccc2cnccc12 [Compound 15]	+/− (+/− = pIC50 <4.00)	++ (++ = pIC50 4.50-5.49)	–	–
Cc1cccc(S(=O)(=O)Nc2cccc3cnccc23)c1 [Compound 17]	++ (++ = pIC50 4.50-5.49)	+++ (+++ = pIC50 ≥5.50)	–	–
COc1ccc(S(=O)(=O)Nc2cccc3cnccc23)cc1OC [Compound 18]	+ (+ = pIC50 4.00-4.49)	+/− (+/− = pIC50 <4.00)	–	–
O=S(=O)(Nc1cccc2cnccc12)c1ccc2c(c1)OCCO2 [Compound 19]	+++ (+++ = pIC50 ≥5.50)	+++ (+++ = pIC50 ≥5.50)	–	–
O=S(=O)(Nc1cccc2cnccc12)c1ccc(-c2ccccc2)cc1 [Compound 20]	+++ (+++ = pIC50 ≥5.50)	+++ (+++ = pIC50 ≥5.50)	–	–
O=S(=O)(Nc1cccc2cnccc12)c1ccccc1F [Compound 21]	++ (++ = pIC50 4.50-5.49)	++ (++ = pIC50 4.50-5.49)	–	–
O=S(=O)(Nc1cccc2cnccc12)c1ccc(F)cc1 [Compound 22]	+ (+ = pIC50 4.00-4.49)	+++ (+++ = pIC50 ≥5.50)	–	–
O=S(=O)(Nc1cccc2cnccc12)c1ccc(F)cc1F [Compound 23]	+ (+ = pIC50 4.00-4.49)	+/− (+/− = pIC50 <4.00)	–	–
CC(=O)Nc1ccc(S(=O)(=O)Nc2cccc3cnccc23)cc1 [Compound 24]	++ (++ = pIC50 4.50-5.49)	+/− (+/− = pIC50 <4.00)	–	–
O=S(=O)(Nc1cccc2cnccc12)c1cccc(OC(F)F)c1 [Compound 26]	++ (++ = pIC50 4.50-5.49)	+++ (+++ = pIC50 ≥5.50)	–	–
Cc1ccccc1S(=O)(=O)Nc1cccc2cnccc12 [Compound 27]	++ (++ = pIC50 4.50-5.49)	+++ (+++ = pIC50 ≥5.50)	–	–
CN1CCOc2cc(S(=O)(=O)Nc3cccc4cnccc34)ccc21 [Compound 28]	–	–	3.24 to 31.6	≤ 3.16
O=S(=O)(Nc1cccc2cnccc12)c1ccc(Cl)s1 [Compound 29]	++ (++ = pIC50 4.50-5.49)	++ (++ = pIC50 4.50-5.49)	–	–
O=S(=O)(Nc1cccc2cnccc12)c1cccc2cccnc12 [Compound 30]	+ (+ = pIC50 4.00-4.49)	+/− (+/− = pIC50 <4.00)	–	–
CC(C)Oc1ccc(S(=O)(=O)Nc2cccc3cnccc23)cc1 [Compound 31]	+++ (+++ = pIC50 ≥5.50)	+/− (+/− = pIC50 <4.00)	–	–
O=C(Nc1ccc2cnccc2c1)c1ccccc1 [Compound 32]	+ (+ = pIC50 4.00-4.49)	+/− (+/− = pIC50 <4.00)	–	–
O=C(Nc1cncc2ccccc12)c1ccccc1 [Compound 33]	+ (+ = pIC50 4.00-4.49)	+/− (+/− = pIC50 <4.00)	–	–
CS(=O)(=O)c1ccc(S(=O)(=O)Nc2cccc3cnccc23)cc1 [Compound 34]	+ (+ = pIC50 4.00-4.49)	+/− (+/− = pIC50 <4.00)	–	–
COc1ccc(S(=O)(=O)Nc2cccc3cnccc23)cc1 [Compound 35]	++ (++ = pIC50 4.50-5.49)	+++ (+++ = pIC50 ≥5.50)	–	–
N#Cc1ccccc1S(=O)(=O)Nc1cccc2cnccc12 [Compound 36]	+ (+ = pIC50 4.00-4.49)	+/− (+/− = pIC50 <4.00)	–	–
CC(C)S(=O)(=O)Nc1cccc2cnccc12 [Compound 37]	+/− (+/− = pIC50 <4.00)	+ (+ = pIC50 4.00-4.49)	–	–
O=S(=O)(Nc1cncc2ccccc12)c1ccccc1 [Compound 38]	+ (+ = pIC50 4.00-4.49)	+ (+ = pIC50 4.00-4.49)	–	–
O=S(=O)(Nc1ccc2cnccc2c1)c1ccccc1 [Compound 39]	+ (+ = pIC50 4.00-4.49)	+/− (+/− = pIC50 <4.00)	–	–

The remaining lines, values ahead:

SKOV3 Kynurenine cell based assay pIC50 (IDO)	A172 Kynurenine cell based assay pIC50 (TDO)	IC50 (IDO) [µM]	IC50 (TDO) [µM]	Structure (SMILES)
+ (+ = pIC50 4.00-4.49)	+ (+ = pIC50 4.00-4.49)	–	–	Nc1nccc2c(NS(=O)(=O)c3ccccc3)cccc12 [Compound 40]
+ (+ = pIC50 4.00-4.49)	+/− (+/− = pIC50 <4.00)	–	–	CC(=O)Nc1cc2c(NS(=O)(=O)c3ccccc3)cccc2cn1 [Compound 41]
+ (+ = pIC50 4.00-4.49)	+ (+ = pIC50 4.00-4.49)	–	–	CN(c1ccccc1)S(=O)(=O)c1cccc2cnccc12 [Compound 42]
+ (+ = pIC50 4.00-4.49)	+/− (+/− = pIC50 <4.00)	–	–	O=C(Nc1ccccc1)c1cccc2cnccc12 [Compound 43]
++ (++ = pIC50 4.50-5.49)	+ (+ = pIC50 4.00-4.49)	–	–	O=S(=O)(Nc1ccccc1)c1cccc2cnccc12 [Compound 44]
–	–	32.4 to 100	> 100	CS(=O)(=O)N1CCN(c2cccc3cnccc23)CC1 [Compound 45, 5-(4-(methylsulfonyl)piperazin-1-yl)isoquinoline]
++ (++ = pIC50 4.50-5.49)	+ (+ = pIC50 4.00-4.49)	–	–	O=S(=O)(Nc1ccc(Cl)cc1)c1cccc2cnccc12 [Compound 46]
++ (++ = pIC50 4.50-5.49)	++ (++ = pIC50 4.50-5.49)	–	–	O=S(=O)(Nc1ccc(-c2ccccc2)cc1)c1cccc2cnccc12 [Compound 47]
+ (+ = pIC50 4.00-4.49)	+/− (+/− = pIC50 <4.00)	–	–	CC(=O)N1CCN(c2cccc3cnccc23)CC1 [Compound 48]
+ (+ = pIC50 4.00-4.49)	+/− (+/− = pIC50 <4.00)	–	–	O=S(=O)(NC1CCCc2cnccc21)c1ccccc1 (stereo not shown) [Compound 49]
+++ (+++ = pIC50 ≥5.50)	+/− (+/− = pIC50 <4.00)	–	–	O=S(=O)(NC1CCCc2cnccc21)c1ccc(-c2ccccc2)cc1 (stereo not shown) [Compound 50]
++ (++ = pIC50 4.50-5.49)	+/− (+/− = pIC50 <4.00)	–	–	O=S(=O)(NC1CCCc2cnccc21)c1ccc(Cl)cc1 (stereo not shown) [Compound 51]
–	–	≤ 3.16	> 100	CC(C)Oc1ccc(S(=O)(=O)NC2CCCc3cnccc32)cc1 (stereo not shown) [Compound 52]
+ (+ = pIC50 4.00-4.49)	+ (+ = pIC50 4.00-4.49)	–	–	CC(C)Oc1ccc(S(=O)(=O)Nc2cccc3ccncc23)cc1 [Compound 53]
